Measurements as given in US11826355B1, “Aspirin-mimetic antioxidants for treatment of age-related cataract” (priority 2022, dated 2023).
“And” between values parts separate entries of the source, which are not always exact repeats. Equal entries are not always repeated.

Columns and labels:
lung cancer = details: 1994 ATBC RCT; cited from earlier work
[1] = tested on: acute ischemia stroke (AIS) and/or ALS; details: approved for acute ischemia stroke (AIS) and/or ALS; cited from earlier work
[2] = General clinical observations during 60-day eye drop administration; type: in vivo, rat; details: eye drops 3 times/day, 60-day administration phase, all concentrations
Source text: (§1) At the age of 19 days after birth (D-1) of the suckling rats, 30 lens opacities were selected for a cloudy rating at Class 4 or 5; Wister suckling rats were randomly divided into 5 groups (G1-G5 groups, 6 in each group); and a cage of suckling rats as G6 was randomly selected after the animals opened their eyes (14-16 days of age).

[3] = tested on: Wistar rat cataract model induced by sodium selenite; experiment: Lens opacity score (slit lamp) in sodium selenite-induced cataract rat model; type: in vivo; set-up: lens opacity score, Mean / lens opacity score / lens opacity score, raw data per eye (OD/OS, rats 1-6): scale not given here; details: G1, 0.8 mg/15 mL, 10 μl 3 times/day
Experimental: A new batch of eye drops solutions was prepared every week. Placebo was a solution that contained the same excipients but without the drug compound. The eye drops solutions were prepared as follows:
3. An illustrative procedure: To a 250 mL volume flask were added 25 mg each of the excipients, sodium borate, boric acid, sodium chloride, and potassium chloride, an aspirin mimetic drug compound to be tested (e.g., DPL-004, 9.0 mg), and about 200 ml of sterilized water to form a mixture. The resultant mixture was shaken well to dissolve solids; and more sterilized water was added to bring the volume of solution to 250 mL, which was shaken well and then distributed into small portions. Each portion was labeled with a concentration of 3.6 mg/100 mL and the preparation date and was stored in a refrigerator for future use.
4. Eye drops solutions comprising DPL-004 at a concentration of 36 mg/100 mL and 12 mg/100 mL were prepared similarly according to the above procedure by using 90 mg and 30 mg of DPL-004, respectively, while maintaining the same amounts of excipients as shown above.
(§2) At the age of 11-12 days after birth, all suckling rats underwent a single intraperitoneal injection of sodium selenite (30 μmol/kg, i.e., 0.1 ml/10 g) for model-building. Sodium selenite solution was configured with normal saline at a concentration of 3 mM.
as §1
(§3) The subject suckling rats of groups G1 to G5 were treated at the age of 20 days after birth (D1), and the specific dosing information is shown in Table 1. Treatment in the G6 group was conducted after the animals opened their eyes (14-16 days old, D-6-D-4), and the specific dosing information is shown in Table 1.
At D-1, in the fourth week of treatment, the slit lamp was used at the end of administration to observe the turbidity of the lens and grade it, and the grading and scoring criteria are shown in the following Table 2.

[4] = Body weight of rats in the cataract model study; type: in vivo, rat; details: G1, 0.8 mg/15 mL, 10 μl 3 times/day
Experimental: as §2, §1, §3

prostate cancer = details: 2008 SELECT RCT; cited from earlier work
[5] = pH about 6.4, day -1 (before administration)

CC1=C(/C=C/C(C)=C/C=C/C(C)=C/C=C/C=C(C)/C=C/C=C(C)/C=C/C2=C(C)CCCC2(C)C)C(C)(C)CCC1 [Beta-carotene only, Beta-carotene]
Adverse Effects: more lung cancer (lung cancer): 18% more lung

CC1=NN(c2ccccc2)C(=O)C1 [Edaravone]
efficacy (marginal) [1]: 5%

O=C(O)c1cc(O)c2c3nc4ccccc4oc-3cc(=O)c2n1 [Pirenoxine, reference compound]
abnormal symptoms (activity status, body weight, skin hair, secretion morphology and color) [2]: no abnormal symptoms | lens opacity score, Mean ([3]; pH about 6.4, day 28): 3.42 | lens opacity score, raw data per eye (OD/OS, rats 1-6) ([3]; pH about 6.4, day 28): 3 and 4 | lens opacity score, Mean ([3]; pH about 6.4, day 60): 2.92 | lens opacity score, raw data per eye (OD/OS, rats 1-6) ([3]; pH about 6.4, day 60): 2 and 4 and 3 | lens opacity score, Mean [3, 5]: 4.00 | lens opacity score, raw data per eye (OD/OS, rats 1-6) [3, 5]: 4 | Body Weight, Mean ([4]; pH about 6.4, day 4): 57.07 g | Body Weight, Mean ([4]; pH about 6.4, day 11): 96.02 g | Body Weight, Mean ([4]; pH about 6.4, day 18): 133.87 g | Body Weight, Mean ([4]; pH about 6.4, day 25): 163.00 g | Body Weight, Mean ([4]; pH about 6.4, day 32): 197.18 g | Body Weight, Mean ([4]; pH about 6.4, day 39): 219.45 g | Body Weight, Mean ([4]; pH about 6.4, day 46): 239.75 g | Body Weight, Mean ([4]; pH about 6.4, day 53): 255.82 g | Body Weight, Mean ([4]; pH about 6.4, day 60): 270.00 g | Body Weight, Mean [4, 5]: 43.48 g

Cc1c(C)c2c(c(C)c1O)CC[C@@](C)(CCC[C@H](C)CCC[C@H](C)CCCC(C)C)O2 [Vitamin E]
Adverse Effects: more prostate cancer (prostate cancer): 17% more prostate
